Data from BindingDB's records for patent WO2022079616 (NOVARTIS AG, 2022).

Key:
[1] = target: T1, Phosphatidylinositol 4-kinase (Cryptosporidium parvum (strain Iowa II), UniProt Q5CVD3); experiment: PI(4)K enzymatic Assay
T1 sequence (Q5CVD3 whole entry): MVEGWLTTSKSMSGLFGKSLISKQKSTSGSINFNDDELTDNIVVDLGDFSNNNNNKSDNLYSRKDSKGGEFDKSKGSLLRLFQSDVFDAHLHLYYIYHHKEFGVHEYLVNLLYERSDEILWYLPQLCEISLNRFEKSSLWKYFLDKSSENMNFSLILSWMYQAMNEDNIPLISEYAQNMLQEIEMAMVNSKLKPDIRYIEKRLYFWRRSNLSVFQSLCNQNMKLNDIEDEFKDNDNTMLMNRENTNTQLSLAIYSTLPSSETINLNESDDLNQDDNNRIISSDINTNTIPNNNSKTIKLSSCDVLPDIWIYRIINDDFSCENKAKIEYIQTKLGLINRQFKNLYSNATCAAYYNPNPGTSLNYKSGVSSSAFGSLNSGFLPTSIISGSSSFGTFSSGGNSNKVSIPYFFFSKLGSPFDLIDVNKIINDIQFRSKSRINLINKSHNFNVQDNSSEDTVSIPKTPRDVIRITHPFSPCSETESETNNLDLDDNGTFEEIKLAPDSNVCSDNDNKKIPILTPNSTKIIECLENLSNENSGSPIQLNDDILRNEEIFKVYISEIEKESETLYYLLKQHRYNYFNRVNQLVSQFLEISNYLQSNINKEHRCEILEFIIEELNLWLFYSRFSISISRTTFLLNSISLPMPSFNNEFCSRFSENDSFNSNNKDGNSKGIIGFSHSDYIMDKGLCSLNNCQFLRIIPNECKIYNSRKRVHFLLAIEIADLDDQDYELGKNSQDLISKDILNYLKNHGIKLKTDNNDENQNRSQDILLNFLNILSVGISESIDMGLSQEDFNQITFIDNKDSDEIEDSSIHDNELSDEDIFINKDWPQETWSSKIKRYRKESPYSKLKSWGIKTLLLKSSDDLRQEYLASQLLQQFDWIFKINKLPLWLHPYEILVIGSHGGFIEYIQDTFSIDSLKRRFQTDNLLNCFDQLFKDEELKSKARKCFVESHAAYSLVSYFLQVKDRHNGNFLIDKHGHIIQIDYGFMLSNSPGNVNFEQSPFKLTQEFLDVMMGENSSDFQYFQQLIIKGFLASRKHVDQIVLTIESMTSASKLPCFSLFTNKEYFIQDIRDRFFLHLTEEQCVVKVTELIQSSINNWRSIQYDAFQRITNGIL
From the text: Baculovirus expression and purification of C. parvum phosphatidylinositol 4-kinase: The full-length coding sequence of C. parvum PI(4)K (cgd8_4500, 1114 amino acids) was codon-optimized for baculovirus expression, synthesized and cloned into pFastBac-HTb (Invitrogen 10584-027) in frame with the amino-terminal polyhistidine tag using the BamHI and HindIII restriction sites. Recombinant pFastBacHTb-CpPI(4)K bacmid clones were generated by site-specific transposition in E. coli DH10Bac (Invitrogen 10361-012). The bacmid sequence was confirmed by direct DNA sequencing to confirm a lack of mutations across the whole gene. The subsequent steps for bacmid isolation, transfection and selection of the recombinant viruses were performed according to the manufacturer s protocol (Bac-to-Bac system # 10359, Invitrogen).SF9 cells, cultured in SF-900 III serum-free medium, were transfected with recombinant baculovirus at 1/200 (v/v) and incubated at 27 °C for 72^h. The pellets were collected after centrifugation and re-suspended in cell lysis buffer (20^mM Tris-HCl, pH^7.5, 300^mM NaCl, 1mM DTT, 20mM imidazole, 0.01% Triton X-100 and 1×^complete protease inhibitor cocktail without EDTA (Roche Diagnostics 04693116001)). The cell suspension was lysed by sonication and the clarified supernatant was loaded onto a 1^ml HisTrap affinity column (GE Healthcare) pre-equilibrated with buffer A (20^mM Tris-HCl, pH^7.5, 300^mM NaCl, 1mM DTT, 20mM Imidazole, and 1×^complete protease inhibitor cocktail without EDTA). The column was washed with buffer B (buffer A containing 45 mM imidazole) and the bound protein of interest was eluted with buffer C (buffer A with 90^mM imidazole). The fractions containing CpPI(4)K were pooled, concentrated using Amicon Ultra-15 and purified by a gel-filtration column (Hi-Load 26/60 Superdex 200, GE Healthcare) equilibrated with 20^mM Tris, pH^7.5, 300^mM NaCl, 1^mM DTT and 1×^protease inhibitor cocktail without EDTA. The concentrations of the purified protein (Mw 132.39 kda) was determined by using the protein molar extinction coefficient (ε280^nm = 133,810^M−1^cm−1). Aliquots were flash frozen in liquid nitrogen and immediately stored at −80 °C.PI(4)K enzymatic Assay: The CpPI(4)K enzymatic assay was performed as described earlier with a some modifications (McNamara et al., 2013). Briefly, L-α-phosphatidylinositol (Avanti Polar Lipid 840046), dissolved in 3% n-octylglucoside (Roche Diagnostics 10634425001), was used as the lipid substrate for the PI(4)K activity assay. CpPI(4)K was assayed using Transcreener ADP2 FP detection kit (BellBrook 3010) in a black, solid 384-well plate (Corning 3575). The final assay volume was 10^μl and contained 3^nM of the respective CpPI(4)K construct in 10^mM Tris, pH^7.5, 1^mM DTT, 3^μM ATP, 5^mM Mn2+, 0.05% Triton X-100 and 10^μM phosphatidylinositol/octylglucoside. The enzyme reaction was performed for 50 minutes at room temperature and was stopped by adding 10^μl of detection mix containing 1×^stop buffer (50mM HEPES, pH7.5, 400mM NaCl, 20mM EDTA, and 0.02% Brij-35), 2^nM AMP Alexa Fluor 633 tracer, and 20^μg^ml−1 ADP antibody. Fluorescence polarization measurements were performed on the Infinite M1000 plate reader (Tecan) with λex = 635^nm and λem = 680^nm (20-nm bandwidth). IC50 values were calculated using Graphpad Prism software.

[2] = target: PI3K/PI4K catalytic domain-containing protein (Cryptosporidium hominis, UniProt A0A0S4TH36)
PI3K/PI4K catalytic domain-containing protein, sequence (A0A0S4TH36 whole entry, the tested form may be a part): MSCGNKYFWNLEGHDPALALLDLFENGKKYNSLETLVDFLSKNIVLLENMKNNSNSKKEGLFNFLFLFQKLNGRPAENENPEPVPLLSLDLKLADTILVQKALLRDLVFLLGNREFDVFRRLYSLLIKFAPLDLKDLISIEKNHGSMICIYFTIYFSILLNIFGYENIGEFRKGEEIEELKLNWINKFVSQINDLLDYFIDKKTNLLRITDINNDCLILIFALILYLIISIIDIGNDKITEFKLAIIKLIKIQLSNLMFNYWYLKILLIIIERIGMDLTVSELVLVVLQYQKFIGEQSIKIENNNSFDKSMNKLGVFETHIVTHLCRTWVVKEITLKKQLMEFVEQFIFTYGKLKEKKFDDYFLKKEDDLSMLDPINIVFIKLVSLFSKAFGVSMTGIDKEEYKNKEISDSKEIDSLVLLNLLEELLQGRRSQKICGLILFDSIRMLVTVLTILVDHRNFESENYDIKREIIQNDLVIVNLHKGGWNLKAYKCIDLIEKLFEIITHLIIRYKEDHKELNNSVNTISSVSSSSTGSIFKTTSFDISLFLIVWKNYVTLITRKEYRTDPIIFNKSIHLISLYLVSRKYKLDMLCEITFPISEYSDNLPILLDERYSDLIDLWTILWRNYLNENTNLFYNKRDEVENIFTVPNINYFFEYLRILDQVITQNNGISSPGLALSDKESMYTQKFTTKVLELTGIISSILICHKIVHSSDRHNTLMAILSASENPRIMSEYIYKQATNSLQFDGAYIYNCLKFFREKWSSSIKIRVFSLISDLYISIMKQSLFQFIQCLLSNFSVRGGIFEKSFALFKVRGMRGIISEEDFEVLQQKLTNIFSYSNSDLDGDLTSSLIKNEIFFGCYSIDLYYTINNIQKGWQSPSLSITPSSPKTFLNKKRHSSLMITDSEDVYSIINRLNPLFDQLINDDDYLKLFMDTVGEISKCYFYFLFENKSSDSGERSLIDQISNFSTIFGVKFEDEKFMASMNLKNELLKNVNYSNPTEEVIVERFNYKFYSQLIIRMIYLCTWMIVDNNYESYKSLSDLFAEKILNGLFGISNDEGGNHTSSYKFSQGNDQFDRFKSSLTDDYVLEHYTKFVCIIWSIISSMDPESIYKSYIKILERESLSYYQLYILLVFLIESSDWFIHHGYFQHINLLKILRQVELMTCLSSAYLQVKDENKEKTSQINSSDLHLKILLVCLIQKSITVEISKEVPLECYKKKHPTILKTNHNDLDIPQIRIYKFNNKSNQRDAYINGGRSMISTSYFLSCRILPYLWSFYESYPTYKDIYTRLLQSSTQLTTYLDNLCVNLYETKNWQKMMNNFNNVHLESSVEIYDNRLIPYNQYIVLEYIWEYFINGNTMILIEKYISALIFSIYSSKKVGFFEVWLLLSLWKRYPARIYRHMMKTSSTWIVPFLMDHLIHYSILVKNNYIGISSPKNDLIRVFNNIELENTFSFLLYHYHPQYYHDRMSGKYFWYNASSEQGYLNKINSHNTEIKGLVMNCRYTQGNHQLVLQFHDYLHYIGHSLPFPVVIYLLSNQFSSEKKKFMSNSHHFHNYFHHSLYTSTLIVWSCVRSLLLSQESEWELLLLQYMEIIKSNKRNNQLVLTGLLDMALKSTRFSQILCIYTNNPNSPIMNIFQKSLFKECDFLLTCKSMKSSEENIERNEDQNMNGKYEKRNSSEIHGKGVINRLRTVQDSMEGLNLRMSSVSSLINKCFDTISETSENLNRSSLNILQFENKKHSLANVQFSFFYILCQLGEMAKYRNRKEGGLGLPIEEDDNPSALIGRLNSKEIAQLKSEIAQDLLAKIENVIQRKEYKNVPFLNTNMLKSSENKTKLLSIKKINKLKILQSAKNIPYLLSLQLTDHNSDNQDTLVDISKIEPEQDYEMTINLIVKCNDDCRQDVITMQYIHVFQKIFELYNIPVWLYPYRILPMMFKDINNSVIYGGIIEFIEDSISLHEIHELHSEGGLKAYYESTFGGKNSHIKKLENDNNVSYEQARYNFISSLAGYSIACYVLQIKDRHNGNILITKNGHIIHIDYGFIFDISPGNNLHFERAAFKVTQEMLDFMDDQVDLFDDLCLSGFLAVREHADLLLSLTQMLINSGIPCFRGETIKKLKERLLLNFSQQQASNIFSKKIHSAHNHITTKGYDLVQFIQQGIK

| SMILES | IC50 [1] [nM] | IC50 [2] [nM] |
| --- | --- | --- |
| CCOC(=O)OC(C)OC(=O)c1cc(N(C)C(=O)c2ccn3ncc(-c4ccc(C(N)=O)cc4)c3c2)ccc1Cl (racemic) [WO2022079616, Example 1.14] | 550 | > 1000 |
| CN(C(=O)c1ccn2ncc(-c3ccc(C(N)=O)cc3)c2c1)c1ccc(Cl)c(C(=O)OCC2CCCO2)c1 (racemic) [WO2022079616, Example 1.15] | < 100 |  |
| CN(C(=O)c1ccn2ncc(-c3ccc(C(N)=O)cc3)c2c1)c1ccc(Cl)c(C(=O)OC(C)(C)C)c1 [WO2022079616, Example 1.02] | < 100 |  |
| CN(C(=O)c1ccn2ncc(-c3ccc(C(N)=O)cc3)c2c1)c1ccc(Cl)c(C(=O)O)c1 [WO2022079616, Example 1.03] | < 100 |  |
| CSCCOC(=O)c1cc(N(C)C(=O)c2ccn3ncc(-c4ccc(C(N)=O)cc4)c3c2)ccc1Cl [WO2022079616, Example 1.04] | < 100 |  |
| CC(C)COC(=O)c1cc(N(C)C(=O)c2ccn3ncc(-c4ccc(C(N)=O)cc4)c3c2)ccc1Cl [WO2022079616, Example 1.05] | < 100 |  |
| COC(=O)COC(=O)c1cc(N(C)C(=O)c2ccn3ncc(-c4ccc(C(N)=O)cc4)c3c2)ccc1Cl [WO2022079616, Example 1.06] | < 100 |  |
| CN(C(=O)c1ccn2ncc(-c3ccc(C(N)=O)cc3)c2c1)c1ccc(Cl)c(C(=O)OCCN2CCOCC2)c1 [WO2022079616, Example 1.08] | < 100 | > 1000 |
| CCOC(=O)c1cc(N(C)C(=O)c2ccn3ncc(-c4ccc(C(N)=O)cc4)c3c2)ccc1Cl [WO2022079616, Example 1.09] | < 100 |  |
| CN(C(=O)c1ccn2ncc(-c3ccc(C(N)=O)cc3)c2c1)c1ccc(Cl)c(C(=O)OCC(F)(F)F)c1 [WO2022079616, Example 1.10] | < 100 |  |
| COCCOC(=O)c1cc(N(C)C(=O)c2ccn3ncc(-c4ccc(C(N)=O)cc4)c3c2)ccc1Cl [WO2022079616, Example 1.11] | < 100 |  |
| CN(C)C(=O)COC(=O)c1cc(N(C)C(=O)c2ccn3ncc(-c4ccc(C(N)=O)cc4)c3c2)ccc1Cl [WO2022079616, Example 1.12] | < 100 |  |
| CC(C)OC(=O)c1cc(N(C)C(=O)c2ccn3ncc(-c4ccc(C(N)=O)cc4)c3c2)ccc1Cl [WO2022079616, Example 1.13] | < 100 |  |
| CNC(=O)c1ccc(-c2cnn3ccc(C(=O)N(C)c4ccc(Cl)c(C(=O)OC)c4)cc23)cc1 [WO2022079616, Example 1.16] | < 100 | 550 |
| CNC(=O)c1ccc(-c2cnn3ccc(C(=O)N(C)c4ccc(Cl)c(C(=O)OC(C)(C)C)c4)cc23)cc1 [WO2022079616, Example 1.17] | < 100 |  |
| CNC(=O)c1ccc(-c2cnn3ccc(C(=O)N(C)c4ccc(Cl)c(C(=O)O)c4)cc23)cc1 [WO2022079616, Example 1.18] | < 100 | 550 |
| CNC(=O)c1ccc(-c2cnn3ccc(C(=O)N(C)c4ccc(Cl)c(C(=O)OCCN5CCOCC5)c4)cc23)cc1 [WO2022079616, Example 1.19] | < 100 | 550 |
| COC(=O)c1cc(N(C)C(=O)c2ccn3ncc(-c4ccc(C(N)=O)cc4C)c3c2)ccc1Cl [WO2022079616, Example 1.21] | < 100 | > 1000 |
| CNC(=O)c1ccc(-c2cnn3ccc(C(=O)N(C)c4ccc(Cl)c(C(=O)OC)c4)cc23)cc1C [WO2022079616, Example 1.22] | 550 | > 1000 |
| COC(=O)c1cc(NC(=O)c2ccn3ncc(-c4ccc(C(N)=O)cc4)c3c2)ccc1Cl [WO2022079616, Example 1.23] | > 1000 | > 1000 |
| CNC(=O)c1ccc(-c2cnn3ccc(C(=O)Nc4ccc(Cl)c(C(=O)OC)c4)cc23)cc1 [WO2022079616, Example 1.24] | > 1000 | > 1000 |
| COC(=O)c1cc(N(C)C(=O)c2ccn3ncc(-c4ccc(C(N)=O)cc4)c3c2)ccc1OC(F)(F)F [WO2022079616, Example 1.25] | < 100 | > 1000 |
| CNC(=O)c1ccc(-c2cnn3ccc(C(=O)N(C)c4ccc(OC(F)(F)F)c(C(=O)OC)c4)cc23)cc1 [WO2022079616, Example 1.26] | < 100 |  |
| COC(=O)c1cc(N(C)C(=O)c2ccn3ncc(-c4ccc(C(N)=O)cc4)c3c2)ccc1C#N [WO2022079616, Example 1.27] | 550 | > 1000 |
| CNC(=O)c1ccc(-c2cnc3cnc(C(=O)N(C)c4ccc(Cl)c(C(=O)OC)c4)cn23)cc1 [WO2022079616, Example 2.1] | < 100 | > 1000 |
| CNC(=O)c1ccc(-c2cnn3cnc(C(=O)N(C)c4ccc(Cl)c(C(=O)OC)c4)cc23)cc1 [WO2022079616, Example 3.1] | < 100 | > 1000 |
| COC(=O)c1cc(Cl)ccc1N(C)C(=O)c1ccn2ncc(-c3ccc(C(N)=O)cc3)c2c1 [WO2022079616, Example 4.1] | < 100 | 550 |
